According to PubChem BioAssay (NCI):
Values joined by “and” are separate entries in the source; they are usually repeats but may differ in a detail not shown here. Equal values may be shown once.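 In this assay, cells in 96-well plates receive the compound at five concentrations for 48 hours. Endpoints are linearly interpolated between the surrounding concentrations. GI50: concentration for 50% inhibition of growth. TGI denotes the concentration required for complete inhibition of growth.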

What was measured:
Assay in all cases: inhibition of tumour cell growth, NCI panel, 48 h
HCT-116 colon = tested on: HCT-116 colon
NCI/ADR-RES ovarian = tested on: NCI/ADR-RES ovarian
NCI-H460 lung = tested on: NCI-H460 lung
HOP-92 NSCLC = tested on: HOP-92 NSCLC
A498 renal = tested on: A498 renal
SK-MEL-5 melanoma = tested on: SK-MEL-5 melanoma
RXF 393 renal = tested on: RXF 393 renal
KM12 colon = tested on: KM12 colon
OVCAR-3 ovarian = tested on: OVCAR-3 ovarian
M14 melanoma = tested on: M14 melanoma
NCI-H226 lung = tested on: NCI-H226 lung
ACHN renal = tested on: ACHN renal

SMILES	TGI (HCT-116 colon)	TGI (NCI/ADR-RES ovarian)	TGI (NCI-H460 lung)	TGI (HOP-92 NSCLC)	TGI (A498 renal)	TGI (SK-MEL-5 melanoma)	TGI (RXF 393 renal)	TGI (KM12 colon)	TGI (OVCAR-3 ovarian)	TGI (M14 melanoma)	TGI (NCI-H226 lung)	TGI (ACHN renal)	GI50 (M14 melanoma)	GI50 (NCI/ADR-RES ovarian)	GI50 (HOP-92 NSCLC)	GI50 (A498 renal)	GI50 (SK-MEL-5 melanoma)	GI50 (RXF 393 renal)	GI50 (KM12 colon)	GI50 (NCI-H226 lung)
COC(=O)C1c2c(c3ccccc3n2C(=O)OC)CCN2CCC1C(S(=O)(=O)c1ccccc1)C2=O (configuration not stated)	> 100 µM	> 100 µM	> 100 µM	> 100 µM	> 100 µM	> 100 µM	> 100 µM	> 100 µM	> 100 µM	> 100 µM	> 100 µM	–	–	–	–	–	–	–	–	–
C=C(C)C1CC/C(C)=C/CC[C@]2(C)O[C@H]2CC/C(COC(C)=O)=C\[C@@H]1O (some centres not stated)	> 50 µM	> 50 µM	> 50 µM	> 50 µM	> 50 µM	> 50 µM	> 50 µM	> 50 µM	> 50 µM	> 50 µM	> 50 µM	> 50 µM	8.28 µM	–	–	–	–	–	–	–
CCCCOC(=O)NC(Nc1cccc(C(F)(F)F)c1)(C(F)(F)F)C(F)(F)F	> 100 µM	> 100 µM	> 100 µM	64.7 µM	> 100 µM	> 100 µM	> 100 µM	> 100 µM	> 100 µM	> 100 µM	> 100 µM	> 100 µM	–	–	–	–	–	–	–	–
Cc1cc(-c2nc3ccccc3s2)ccc1N	> 78.7 µM	> 87.6 µM	> 71.7 µM	> 100 µM	> 94.5 µM	> 66.8 µM	98.7 µM	> 81.2 µM	> 86.6 µM	> 73.5 µM	> 92 µM	> 95.1 µM	–	–	–	–	–	–	–	–
COc1cc(C)cc2c1c(=O)c1ccccc1n2C	76.3 µM	> 100 µM	> 100 µM	91.8 µM	89.2 µM	51.3 µM	73.8 µM	> 100 µM	> 100 µM	> 100 µM	81.5 µM	> 100 µM	–	–	–	–	–	–	–	–
COc1cc(C=C2C(C)=NN(c3cccc(Cl)c3)C23C(Cl)C(=O)N3c2nc3ccccc3s2)ccc1O (configuration not stated)	45 µM	> 100 µM	66.1 µM	26.1 µM	35.2 µM	36.9 µM	30.3 µM	30.1 µM	72.2 µM	41.9 µM	63.6 µM	39.1 µM	–	–	–	–	–	–	–	–
COc1cc(C2SC(N)=Nc3c2c(C)nn3C(=O)c2ccccc2O)ccc1O (configuration not stated)	> 10 µM	> 10 µM	> 10 µM	> 10 µM	> 10 µM	> 10 µM	> 10 µM	> 10 µM	> 10 µM	> 10 µM	> 6.18 µM	> 10 µM	–	–	–	–	–	–	–	–
Cc1ccc2c(c1)C(=O)N1CCC[C@H]1C=N2	> 100 µM	> 64 µM	> 71.6 µM	> 86.9 µM	> 100 µM	26.7 µM	16.1 µM	39.7 µM	> 67.2 µM	47.8 µM	–	> 70.9 µM	–	–	–	–	–	–	–	–
COC1C(O)C(C)OC(OC2C(Oc3cccc4c(O)c5c(=O)oc6ccc(C)c7c(=O)oc(c34)c5c67)OC(C)C(O)C2O)C1O (configuration not stated)	3.4 µM and 5.71 µM	117 µM	9.07 µM and 13.1 µM	–	4.04 µM and 5.15 µM	6.38 µM and 4.19 µM	2.6 µM and 3.37 µM	16.6 µM and 8.05 µM	10.7 µM and 8.63 µM	14.8 µM	5.15 µM and 4.17 µM	46.1 µM	–	26.1 µM	2.43 µM	1.22 µM	1.91 µM	0.536 µM	2.17 µM	1.66 µM
Cc1oc(N)c(S(=O)(=O)c2ccc(Cl)cc2)c1C	> 100 µM	> 100 µM	> 100 µM	> 100 µM	> 100 µM	> 100 µM	> 100 µM	> 100 µM	> 100 µM	> 100 µM	> 100 µM	> 100 µM	–	–	–	–	–	–	–	–
O=C1CC(=O)NC(=NN2C(=O)/C(=C/c3ccccc3)N=C2c2ccccc2)N1	> 100 µM	> 100 µM	> 100 µM	> 100 µM	> 100 µM	> 100 µM	> 100 µM	> 100 µM	> 100 µM	> 100 µM	> 100 µM	> 100 µM	–	–	–	–	–	–	–	–
O=C1N2CCc3c([nH]c4ccccc34)C23CC2CCCCC12S3 (configuration not stated)	> 100 µM	> 100 µM	–	> 100 µM	> 100 µM	> 100 µM	> 100 µM	> 100 µM	> 100 µM	> 100 µM	> 100 µM	> 100 µM	–	–	–	–	–	–	–	–
Brc1c(C#CCC(c2ccccc2)(c2ccccc2)c2ccccc2)ccc(C#CCC(c2ccccc2)(c2ccccc2)c2ccccc2)c1Br	> 100 µM	> 100 µM	> 100 µM	> 100 µM	> 100 µM	> 100 µM	> 100 µM	> 100 µM	> 100 µM	> 100 µM	> 100 µM	> 100 µM	–	–	–	–	–	–	–	–
CC(C)OP(=O)(OC(C)C)/C(C#N)=C/c1ccco1	> 100 µM	> 100 µM	> 100 µM	> 100 µM	> 100 µM	> 100 µM	> 100 µM	> 100 µM	> 100 µM	> 100 µM	> 100 µM	> 100 µM	–	–	–	–	–	–	–	–
CCOP(=O)(C/C=C/Cn1nc(Br)c(=O)[nH]c1=O)OCC	> 100 µM	> 100 µM	> 100 µM	> 100 µM	> 100 µM	> 100 µM	> 100 µM	> 100 µM	> 100 µM	> 100 µM	> 100 µM	> 100 µM	–	–	–	–	–	–	–	–
c1ccc(P(CCP(c2ccccn2)c2ccccn2)c2ccccc2)cc1	> 100 µM	> 100 µM	> 84.9 µM	> 69.9 µM	> 100 µM	> 100 µM	98 µM	> 100 µM	–	> 100 µM	> 100 µM	> 100 µM	–	–	–	–	–	–	–	–
C/C1=C/C(C)CC(C)OC(=O)C(C)NC(=O)C(Cc2ccc(O)c(I)c2)N(C)C(=O)C(C)NC(=O)C(C)C1 (configuration not stated)	> 48.7 µM	24.4 µM	12.8 µM	0.0259 µM	< 0.0137 µM	11.7 µM	< 0.0106 µM	24.3 µM	< 0.01 µM	48.8 µM	–	–	–	–	–	–	–	–	–	–
CCN(CC)CCNC(=O)c1ccc(I)cc1	> 100 µM	> 100 µM	> 100 µM	> 100 µM	84.9 µM	> 100 µM	> 100 µM	> 100 µM	> 100 µM	> 100 µM	> 100 µM	> 100 µM	–	–	–	–	–	–	–	–
